Here are results for six compounds from PubChem BioAssay (NCI).

Molecules are shown by their SMILES.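 Exposure lasted 48 hours, with cells grown in 96-well plates and compounds tested at five concentrations. At the GI50, growth is halved. The concentration for full growth arrest is given as TGI.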

Some test systems named below: LOX IMVI melanoma; NCI/ADR-RES ovarian; MALME-3M melanoma; COLO 205 colon; SF-295 CNS; RPMI-8226 leukemia; HCT-15 colon; RXF 393 renal; OVCAR-8 ovarian; IGROV1 ovarian.
What all share (assay): NCI anticancer screen, dose series, 48 h

For `COC(=O)Nc1nc2ccc(Oc3ccc(NC(=O)Nc4cccc(Cl)c4)cc3)cc2[nH]1`, the GI50 in the experiment with LOX IMVI melanoma is 1.42 µM; in the experiment on NCI/ADR-RES ovarian, 5.17 µM; with MALME-3M melanoma, 0.564 µM; in the experiment on COLO 205 colon, 0.916 µM; in the experiment with SF-295 CNS, 0.777 µM; in the experiment on RPMI-8226 leukemia, 1.64 µM. For the same compound, the GI50 with HCT-15 colon is 0.815 µM; with RXF 393 renal it was 0.445 µM; with OVCAR-8 ovarian, 2.84 µM; in the experiment with IGROV1 ovarian it was 2.86 µM. Moreover, the TGI with LOX IMVI melanoma is 6.6 µM; with NCI/ADR-RES ovarian, over 25 µM; in the experiment on MALME-3M melanoma, 7.95 µM; in the experiment with COLO 205 colon, 3.07 µM; in the experiment on SF-295 CNS, 6.59 µM; in the experiment with RPMI-8226 leukemia, over 25 µM. In addition, the TGI in the experiment on HCT-15 colon was over 25 µM; in the experiment on RXF 393 renal, 2.34 µM; in the experiment on OVCAR-8 ovarian it was over 17.8 µM; with IGROV1 ovarian, 9.79 µM.
With `CC/C(=C(\CC)c1ccc(OCCN(CC)CC)cc1)c1ccc(OCCN(CC)CC)cc1`, the GI50 in the experiment with LOX IMVI melanoma was 1.19 µM; in the experiment on NCI/ADR-RES ovarian, 4.89 µM; in the experiment with MALME-3M melanoma, 1.81 µM; in the experiment with COLO 205 colon, 1.47 µM; in the experiment with SF-295 CNS, 1.37 µM; in the experiment on RPMI-8226 leukemia it was 1.42 µM. For the same compound, the GI50 in the experiment on HCT-15 colon is 1.74 µM; in the experiment with RXF 393 renal it was 1.63 µM; in the experiment with OVCAR-8 ovarian, 5.85 µM; in the experiment with IGROV1 ovarian it was 3.3 µM. The TGI in the experiment with LOX IMVI melanoma was determined as 5.5 µM; with NCI/ADR-RES ovarian, 17.9 µM; in the experiment on MALME-3M melanoma, 5.87 µM; in the experiment with COLO 205 colon it was 3.07 µM; in the experiment on SF-295 CNS, 3.91 µM; in the experiment with RPMI-8226 leukemia it was 4.63 µM. In addition, the TGI in the experiment on HCT-15 colon came to 11.2 µM; with RXF 393 renal, 3.75 µM; in the experiment with OVCAR-8 ovarian it was 19.3 µM; with IGROV1 ovarian it was 22.1 µM.
`ON(CCc1ccccn1)Cc1ccccc1`: the TGI with LOX IMVI melanoma, with NCI/ADR-RES ovarian, in the experiment with MALME-3M melanoma, in the experiment with COLO 205 colon, in the experiment with SF-295 CNS and in the experiment on RPMI-8226 leukemia was over 100 µM throughout. In addition, the TGI in the experiment on HCT-15 colon, with RXF 393 renal, in the experiment on OVCAR-8 ovarian and in the experiment on IGROV1 ovarian was over 100 µM in each case.
As for `CCOC(=O)c1cc2ncccc2c2ccccc12`, the TGI in the experiment with LOX IMVI melanoma, in the experiment on NCI/ADR-RES ovarian, in the experiment on MALME-3M melanoma, in the experiment on COLO 205 colon, in the experiment on SF-295 CNS and in the experiment on RPMI-8226 leukemia was over 100 µM throughout. The TGI with HCT-15 colon, with RXF 393 renal, in the experiment on OVCAR-8 ovarian and in the experiment on IGROV1 ovarian was over 100 µM each time.
For `C/C(=C\c1ccn(-c2ccc(N)cc2)n1)[C@@H]1C[C@@H]2O[C@]2(C)CCC[C@H](C)[C@H](O)[C@@H](C)C(=O)C(C)(C)[C@@H](O)CC(=O)O1`, the GI50 with LOX IMVI melanoma is 0.0273 µM; in the experiment with NCI/ADR-RES ovarian, 0.106 µM; in the experiment on MALME-3M melanoma it was 0.125 µM; in the experiment with COLO 205 colon it was 0.0175 µM; in the experiment with SF-295 CNS, 0.0721 µM; in the experiment with RPMI-8226 leukemia, 0.0214 µM. Further, the GI50 is 0.0297 µM with HCT-15 colon, 0.0478 µM with RXF 393 renal, 0.0481 µM in the experiment with OVCAR-8 ovarian and 0.494 µM in the experiment on IGROV1 ovarian. The TGI with LOX IMVI melanoma is over 50 µM; in the experiment with MALME-3M melanoma, over 50 µM; in the experiment with COLO 205 colon it was 0.634 µM; in the experiment with SF-295 CNS, over 50 µM; in the experiment on RPMI-8226 leukemia, over 50 µM; with HCT-15 colon it was over 50 µM. The TGI in the experiment on RXF 393 renal was 0.406 µM; with OVCAR-8 ovarian, over 50 µM; in the experiment on IGROV1 ovarian it was over 50 µM.
`CCCC(=O)NNc1[nH]c(-c2ccc(OC)cc2)cc1C(=O)OCC`: the GI50 was 16.8 µM in the experiment with LOX IMVI melanoma; 19.2 µM in the experiment with NCI/ADR-RES ovarian; 14.5 µM with MALME-3M melanoma; 2.39 µM in the experiment on COLO 205 colon; 38 µM in the experiment on SF-295 CNS; 16.8 µM in the experiment on RPMI-8226 leukemia. Further, the GI50 was 9.47 µM in the experiment with HCT-15 colon, 22 µM with RXF 393 renal, 17.8 µM in the experiment on OVCAR-8 ovarian and 21.2 µM with IGROV1 ovarian. The TGI was 30.5 µM in the experiment on LOX IMVI melanoma; 47.4 µM in the experiment with NCI/ADR-RES ovarian; 29.2 µM in the experiment on MALME-3M melanoma; 5.89 µM in the experiment on COLO 205 colon; over 100 µM in the experiment with SF-295 CNS; 86.2 µM with RPMI-8226 leukemia. For the same compound, the TGI with HCT-15 colon came out at 21.3 µM; in the experiment with RXF 393 renal, 45.1 µM; in the experiment on OVCAR-8 ovarian, 48.3 µM; in the experiment with IGROV1 ovarian, 39.5 µM.
